# In patent US20240277744A1, “TREATMENT OF CHEMORESISTANT CANCER CELLS” (Cornell University, priority 2023, published 2024):
# Legend:
# SW1990 cells [1] = experiment: Cell viability (DAPI nuclei count, high content imaging); format: cell-based; details: Homo sapiens, SW1990, 72 h, read-out: IC50, viability
# Description: (§1) Cell viability, colony formation, sphere formation and growth curve. To quantify viability, cells were plated into 96-well plates (6000/well) one night before treatment. […] After fixation, cell nuclei were stained with DAPI (Invitrogen). Plates were analyzed using MetaXpress High Content Image Acquisition and Analysis System (Molecular Devices).
# SW1990GR cells [2] = experiment: Growth curve / proliferation assay; format: cell-based; details: 25 nM CYM
# Description: (§2) To quantify growth, Cells were seeded into 96-well plates (2000/well). After overnight incubation, medium with indicated drug was refreshed. Cell proliferation was quantified every 2 days using CellTiter 96® AQueous Non-Radioactive Cell Proliferation Assay (Promega).
# SW1990 cells [3] = experiment: Growth curve / proliferation assay; format: cell-based; details: SW1990, 50 nM CYM
# Description: as §2
# [4] = tested on: UGT1A10 transcript in SW1990GR cells; experiment: qRT-PCR of UGT1A10 expression; format: cell-based
# Description: (§3) qRT-PCR. Reverse transcription reaction was prepared with 0.5-2 μg total RNA using High Capacity cDNA Reverse Transcription Kit (Applied Biosystems). Products were diluted 10 folds with DNase&RNase free water as template. qPCR reactions were prepared with 2× LightCycler 480 SYBR Green I Master reagent (Roche) and proceeded in LightCycler 480 II (Roche) with software LightCycler 480 SW1.5.1 for signal acquisition and processing. ACTB was employed as internal reference. Primers were listed below: […]
# [5] = tested on: UGT1A10 transcript in SW1990 cells; experiment: qRT-PCR of UGT1A10 expression; format: cell-based; details: SW1990, CYM treatment
# Description: as §3
# TRA-1-60+ SW1990GR cells = experiment: High content screen / immunofluorescent staining of TRA-1-60+ cells; format: cell-based
# Description: Immunofluorescent staining. Primary antibodies were TRA-1-60 antibody (BD, 1:200), biotin conjugated TRA-1-60 antibody (eBioscience, 1:200). Secondary antibodies were donkey anti-mouse Alexa-efluor594 (Life technologies, 1:500) or streptavidin conjugated Alexa Fluor® 594 (Life technologies, 1:200).
# Cells were fixed with 10% formalin for 20 min at room temperature. After 1 hour blocking in PBS with 5% horse serum and 0.3% triton-X100, primary antibodies were added to cells and incubated overnight at 4° C. Secondary antibody incubation was 1.5 hours at room temperature.
# Chemical library screening. The Prestwick library of FDA approved drugs (˜1280 chemicals) plus a collection of drugs in clinical trials was used for the screen on SW1990GR cells.
# For screening, SW1990GR cells were plated in 384-well plates (5000 cells/well). After overnight incubation, chemicals were added at 1 μM or 10 μM in duplicate. After 5 days of treatment, plates were stained with TRA-1-60 antibody and analyzed with MetaXpress High Content Image Acquisition and Analysis System (Molecular Devices). Wells treated with DMSO were set as control. The reduction was calculated by subtracting the percentage of TRA-1-60^+ cells in the chemical-treated wells from that of control wells. Standard deviation of TRA-1-60^+ percentage in control wells was calculated and 3-fold of this value was taken as threshold to pick up the primary hit.
# DU145 cell line = experiment: Flow cytometry of TRA-1-81+ cells; format: cell-based; details: DU145, 25 nM CYM, 5 days
# Description: (§4) Flow cytometry. TRA-1-60 PerCP-efluor710 (eBioscience, 1:50) and TRA-1-81 PE (eBioscience, 1:100) were used. Cells were blocked with 5% FBS plus mouse IgM isotype control antibody (eBioscience, 1:100) at room temperature for 15 min, then stained on ice for 30 min. Stained cells were resuspended in PBS containing 300 nM DAPI and proceeded to analysis or sorting. Cell apoptosis was analyzed with FITC-AnnexinV labeling reagent (BD). Flow cytometry analysis was carried out on BD FACS Calibur with FlowJo 9.8 software. Sorting was performed with FACSVantage SE (Becton Dickinson).
# TRA-1-81+ SW1990 cells = experiment: Flow cytometry of TRA-1-81+ cells; format: cell-based
# Description: as §4
# TRA-1-81+ SW1990GR cells = experiment: Flow cytometry of TRA-1-81+ cells; format: cell-based
# Description: as §4
# HCT116 cell line = experiment: Flow cytometry of TRA-1-81+ cells; format: cell-based; details: HCT-116, 25 nM CYM, 5 days
# Description: as §4
# SW1990GR cells [6] = experiment: Cell viability (DAPI nuclei count, high content imaging); format: cell-based; details: 72 h, CYM 0-500 nM, 3 days, read-out: IC50, viability
# Description: To establish GR cell lines, cells were first cultured with 10 nM GEM till cell growth became stable. […] Once cell growth became stable in 100 nM GEM, cells were expanded in 100 nM GEM and used in assays.
# as §1
# hESCs = details: cited from earlier work
# HPAF-II cells = experiment: Cell viability with GEM and CYM; format: cell-based; details: 50 nM GEM and 25 nM CYM, 5 days
# Description: (§5) Cell viability, colony formation, sphere formation and growth curve. To quantify viability, cells were plated into 96-well plates (6000/well) one night before treatment. Drugs were then added in indicated dose for 5 days. After fixation, cell nuclei were stained with DAPI (Invitrogen). Plates were analyzed using MetaXpress High Content Image Acquisition and Analysis System (Molecular Devices).
# HT-29 cells = experiment: Cell viability with GEM and CYM; format: cell-based; details: HT-29, 50 nM GEM and 25 nM CYM, 5 days
# Description: as §5
smiles,measurement,setting,value
"CO[C@H]1C[C@H](O[C@H]2CC[C@]3(C=O)[C@H]4CC[C@]5(C)[C@@H](C6=CC(=O)OC6)CC[C@]5(O)[C@@H]4CC[C@]3(O)C2)O[C@H](C)[C@H]1O [CYM, Cymarin]",IC50,SW1990 cells [1],33.8 ± 2.6 nM
same,proliferation,SW1990GR cells [2],sufficient to block the proliferation
same,proliferation,SW1990 cells [3],significantly decreased the proliferation
same,expression of UGT1A10 in TRA-1-81+ and TRA-1-81− subpopulations,[4]; 25 nM CYM,significantly inhibits
same,UGT1A10 transcript levels,[4]; CYM treatment,decreased
same,UGT1A10 transcript levels,[5],decreased
same,percentage of TRA-1-60+ cells after treatment,"TRA-1-60+ SW1990GR cells; 25 nM CYM, 5 days, SW1990GR, from ~18%",less than 5%
same,relative potency in TRA-1-60 inhibition,TRA-1-60+ SW1990GR cells; SW1990GR,higher potency than Ouabain
same,validation of primary hit,TRA-1-60+ SW1990GR cells; SW1990GR,able to be validated
same,IC50,"TRA-1-60+ SW1990GR cells; read-out: IC50, decrease of percentage of TRA-1-60+ cells",15.2 ± 4.3 nM
same,percentage of TRA-1-81+ cells,DU145 cell line,decreased
same,IC50,"TRA-1-81+ SW1990 cells; Homo sapiens, SW1990, read-out: IC50, repression of TRA-1-81+ cells",6.3 ± 2.2 nM
same,TRA-1-81+ cells in time course,"TRA-1-81+ SW1990 cells; SW1990, 25 nM CYM",decrease of TRA-1-81^+ cells over time
same,percentage of TRA-1-81+ cells with or without acute GEM,"TRA-1-81+ SW1990 cells; SW1990, 5 days, 25 nM CYM or 100 nM GEM plus 25 nM CYM",decreased the percentage of TRA-1-81^+ cells effectively regardless of GEM
same,TRA-1-81+ cells in time course,TRA-1-81+ SW1990GR cells; 25 nM CYM,decrease of TRA-1-81^+ cells over time
same,IC50,"TRA-1-81+ SW1990GR cells; flow cytometry, read-out: IC50, decrease of percentage of TRA-1-81+ cells",5.1 ± 1.5 nM
same,percentage of TRA-1-81+ cells,HCT116 cell line,decreased
same,IC50,SW1990GR cells [6],40.8 ± 3.1 nM
same,effect on hESCs in a previous screen,hESCs,differentiation inducer of hESCs
same,survival of GEM-resistant cells,HPAF-II cells,significantly decreased the survival
same,survival of GEM-resistant cells,HT-29 cells,significantly decreased the survival
